Measured values from ChEMBL document CHEMBL5537158, “Polymyxins with Potent Antibacterial Activity against Colistin-Resistant Pathogens: Fine-Tuning Hydrophobicity with Unnatural Amino Acids” (J Med Chem, 2024).
In brackets after ≈: the same amount, converted by molar mass. Positions of bridges follow the written chain, without caps; N, C: chain ends. Non-standard residues stand in square brackets, D forms with d. Residues, ends and D or L forms follow the SMILES beside them. *: point of attachment. Phe(3,4,5-F3) = N[C@@H](Cc1cc(F)c(F)c(F)c1)C(=O)O; Phe(4-CF3) = N[C@@H](Cc1ccc(C(F)(F)F)cc1)C(=O)O; Phe(4-Cl) = N[C@@H](Cc1ccc(Cl)cc1)C(=O)O; dPhe(3-F) = N[C@H](Cc1cccc(F)c1)C(=O)O; dPhe(4-F) = N[C@H](Cc1ccc(F)cc1)C(=O)O; Phe(2-F) = N[C@@H](Cc1ccccc1F)C(=O)O; d(hPhe) = N[C@H](CCc1ccccc1)C(=O)O; hhPhe = N[C@@H](CCCc1ccccc1)C(=O)O; hLeu = CC(C)CC[C@H](N)C(=O)O; Octanoyl = CCCCCCCC(=O)*; Dab = NCC[C@H](N)C(=O)O

What was measured:
Acinetobacter baumannii [1] = test: Antimicrobial activity against colistin resistant Acinetobacter baumannii ATCC 3658/17 assessed as bacterial growth inhibition incubated for 20 hrs by broth microdilution method; type: functional
Escherichia coli = test: Antibacterial activity against Escherichia coli ATCC 25922 assessed as bacterial growth inhibition incubated for 20 hrs by broth microdilution method; type: functional
Pseudomonas aeruginosa = test: Antimicrobial activity against Pseudomonas aeruginosa PAO1 assessed as bacterial growth inhibition incubated for 20 hrs by broth microdilution method; type: functional
Acinetobacter baumannii [2] = test: Antimicrobial activity against Acinetobacter baumannii ATCC 19606 assessed as bacterial growth inhibition incubated for 20 hrs by broth microdilution method; type: functional
[3] = Hemolytic activity in human RBC at 400 ug/ml after 1 hr; type: toxicity, cell-based, Erythrocyte; conditions: red blood cells (erythrocytes), at 400 µg/mL, read-out: Activity

SMILES: CCCCCCCC(=O)N[C@@H](CCN)C(=O)N[C@H](C(=O)N[C@@H](CCN)C(=O)N[C@H]1CCNC(=O)[C@H]([C@@H](C)O)NC(=O)[C@H](CCN)NC(=O)[C@H](CCN)NC(=O)[C@H](CC(C)C)NC(=O)[C@@H](CCc2ccccc2)NC(=O)[C@H](CCN)NC1=O)[C@@H](C)O (Octanoyl-[Dab]T[Dab][Dab][Dab][d(hPhe)]L[Dab][Dab]T; lactam 4-C)
- MIC (Acinetobacter baumannii [1]): 4 µg/mL (≈ 3.32 µM)
- MIC (Escherichia coli): 0.25 µg/mL (≈ 0.208 µM)
- MIC (Pseudomonas aeruginosa): 0.25 µg/mL (≈ 0.208 µM)

SMILES: CCCCCCCC(=O)N[C@@H](CCN)C(=O)N[C@H](C(=O)N[C@@H](CCN)C(=O)N[C@H]1CCNC(=O)[C@H]([C@@H](C)O)NC(=O)[C@H](CCN)NC(=O)[C@H](CCN)NC(=O)[C@H](Cc2ccc(C(F)(F)F)cc2)NC(=O)[C@@H](CC(C)C)NC(=O)[C@H](CCN)NC1=O)[C@@H](C)O (Octanoyl-[Dab]T[Dab][Dab][Dab][dL][Phe(4-CF3)][Dab][Dab]T; lactam 4-C)
- MIC (Acinetobacter baumannii [1]): 1 µg/mL (≈ 0.795 µM)
- MIC (Pseudomonas aeruginosa): 0.25 µg/mL (≈ 0.199 µM)
- MIC (Acinetobacter baumannii [2]): < 0.125 µg/mL

SMILES: CC(=O)N[C@H](Cc1cccc(F)c1)C(=O)N[C@@H](CCN)C(=O)N[C@H](C(=O)N[C@@H](CCN)C(=O)N[C@H]1CCNC(=O)[C@H]([C@@H](C)O)NC(=O)[C@H](CCN)NC(=O)[C@H](CCN)NC(=O)[C@H](CC(C)C)NC(=O)[C@@H](Cc2ccccc2)NC(=O)[C@@H](CCN)NC1=O)[C@H](C)O
- MIC (Acinetobacter baumannii [1]): 16 µg/mL (≈ 12.6 µM)
- MIC (Escherichia coli): 0.25 µg/mL (≈ 0.197 µM)
- MIC (Pseudomonas aeruginosa): 0.25 µg/mL (≈ 0.197 µM)
- hemolysis at 1 h, 400 ug/ml [3]: < 10%
- MIC (Acinetobacter baumannii [2]): 1 µg/mL (≈ 0.787 µM)

SMILES: CCCCCCCC(=O)N[C@@H](CCN)C(=O)N[C@H](C(=O)N[C@@H](CCN)C(=O)N[C@H]1CCNC(=O)[C@H]([C@@H](C)O)NC(=O)[C@H](CCN)NC(=O)[C@H](CCN)NC(=O)[C@H](Cc2cc(F)c(F)c(F)c2)NC(=O)[C@@H](CC(C)C)NC(=O)[C@H](CCN)NC1=O)[C@@H](C)O (Octanoyl-[Dab]T[Dab][Dab][Dab][dL][Phe(3,4,5-F3)][Dab][Dab]T; lactam 4-C)
- MIC (Acinetobacter baumannii [1]): 2 µg/mL (≈ 1.61 µM)
- MIC (Pseudomonas aeruginosa): 0.25 µg/mL (≈ 0.201 µM)
- MIC (Acinetobacter baumannii [2]): < 0.125 µg/mL

SMILES: CCCCCCCC(=O)N[C@@H](CCN)C(=O)N[C@H](C(=O)N[C@@H](CCN)C(=O)N[C@H]1CCNC(=O)[C@H]([C@@H](C)O)NC(=O)[C@H](CCN)NC(=O)[C@H](CCN)NC(=O)[C@H](CC(C)C)NC(=O)[C@@H](Cc2ccc(F)cc2)NC(=O)[C@H](CCN)NC1=O)[C@@H](C)O (Octanoyl-[Dab]T[Dab][Dab][Dab][dPhe(4-F)]L[Dab][Dab]T; lactam 4-C)
- hemolysis at 1 h, 400 ug/ml [3]: < 10%

SMILES: CCCCCCCC(=O)N[C@@H](CCN)C(=O)N[C@H](C(=O)N[C@@H](CCN)C(=O)N[C@H]1CCNC(=O)[C@H]([C@@H](C)O)NC(=O)[C@H](CCN)NC(=O)[C@H](CCN)NC(=O)[C@H](CCC(C)C)NC(=O)[C@@H](Cc2ccccc2)NC(=O)[C@H](CCN)NC1=O)[C@@H](C)O (Octanoyl-[Dab]T[Dab][Dab][Dab][dF][hLeu][Dab][Dab]T; lactam 4-C)
- hemolysis at 1 h, 400 ug/ml [3]: < 10%

SMILES: CCCCCCCC(=O)N[C@@H](CCN)C(=O)N[C@H](C(=O)N[C@@H](CCN)C(=O)N[C@H]1CCNC(=O)[C@H]([C@@H](C)O)NC(=O)[C@H](CCN)NC(=O)[C@H](CCN)NC(=O)[C@H](CC(C)C)NC(=O)[C@@H](Cc2cccc(F)c2)NC(=O)[C@H](CCN)NC1=O)[C@@H](C)O (Octanoyl-[Dab]T[Dab][Dab][Dab][dPhe(3-F)]L[Dab][Dab]T; lactam 4-C)
- MIC (Acinetobacter baumannii [1]): 4 µg/mL (≈ 3.31 µM)
- MIC (Pseudomonas aeruginosa): 0.25 µg/mL (≈ 0.207 µM)
- MIC (Acinetobacter baumannii [2]): 0.25 µg/mL (≈ 0.207 µM)

SMILES: CCCCCCCC(=O)N[C@@H](CCN)C(=O)N[C@H](C(=O)N[C@@H](CCN)C(=O)N[C@H]1CCNC(=O)[C@H]([C@@H](C)O)NC(=O)[C@H](CCN)NC(=O)[C@H](CCN)NC(=O)[C@H](Cc2ccccc2F)NC(=O)[C@@H](CC(C)C)NC(=O)[C@H](CCN)NC1=O)[C@@H](C)O (Octanoyl-[Dab]T[Dab][Dab][Dab][dL][Phe(2-F)][Dab][Dab]T; lactam 4-C)
- hemolysis at 1 h, 400 ug/ml [3]: < 10%

SMILES: CC(=O)N[C@H](Cc1ccc(F)cc1)C(=O)N[C@@H](CCN)C(=O)N[C@H](C(=O)N[C@@H](CCN)C(=O)N[C@H]1CCNC(=O)[C@H]([C@@H](C)O)NC(=O)[C@H](CCN)NC(=O)[C@H](CCN)NC(=O)[C@H](CC(C)C)NC(=O)[C@@H](Cc2ccccc2)NC(=O)[C@@H](CCN)NC1=O)[C@H](C)O
- MIC (Acinetobacter baumannii [1]): 16 µg/mL (≈ 12.6 µM)
- MIC (Escherichia coli): 0.25 µg/mL (≈ 0.197 µM)
- hemolysis at 1 h, 400 ug/ml [3]: < 10%
- MIC (Acinetobacter baumannii [2]): 2 µg/mL (≈ 1.57 µM)

SMILES: CCCCCCCC(=O)N[C@@H](CCN)C(=O)N[C@H](C(=O)N[C@@H](CCN)C(=O)N[C@H]1CCNC(=O)[C@H]([C@@H](C)O)NC(=O)[C@H](CCN)NC(=O)[C@H](CCN)NC(=O)[C@H](Cc2ccc(Cl)cc2)NC(=O)[C@@H](CC(C)C)NC(=O)[C@H](CCN)NC1=O)[C@@H](C)O (Octanoyl-[Dab]T[Dab][Dab][Dab][dL][Phe(4-Cl)][Dab][Dab]T; lactam 4-C)
- MIC (Acinetobacter baumannii [1]): 1 µg/mL (≈ 0.817 µM)
- MIC (Pseudomonas aeruginosa): 0.25 µg/mL (≈ 0.204 µM)
- MIC (Acinetobacter baumannii [2]): 0.125 µg/mL (≈ 0.102 µM)

SMILES: CCCCCCCC(=O)N[C@@H](CCN)C(=O)N[C@H](C(=O)N[C@@H](CCN)C(=O)N[C@H]1CCNC(=O)[C@H]([C@@H](C)O)NC(=O)[C@H](CCN)NC(=O)[C@H](CCN)NC(=O)[C@H](CCCc2ccccc2)NC(=O)[C@@H](CC(C)C)NC(=O)[C@H](CCN)NC1=O)[C@@H](C)O (Octanoyl-[Dab]T[Dab][Dab][Dab][dL][hhPhe][Dab][Dab]T; lactam 4-C)
- hemolysis at 1 h, 400 ug/ml [3]: < 10%
